Assays:
[1] = Ocular distribution and pharmacokinetics of 14C-voclosporin in DB rabbits; assay type: in vivo, Dutch Belted (DB) rabbits
Description: (§1) NZW rabbits (30 females/8 males) were used in a single dose (SD) and 7-day repeat dose (RD) study (see Table 38). DB rabbits (16 females) were used in a single dose study (see Table 39). […] Blood and ocular tissue radioactivity levels were assessed at designated time points via combustion followed by liquid scintillation counting.
(§2) At each sampling point, a t-test was used to compare the tissue concentrations within or between the two strains of rabbits. SigmaStat® 3.5 (Systat, Inc., San Jose, Calif.) was used for the statistical analyses (p<0.05). […] Pharmacokinetic analysis was performed using WinNonlin 5.2 (Pharsight, Corporation, Mountain View, Calif.). Cmax and Tmax, and where calculable AUC and t1/2, were reported.

[2] = Ocular distribution and pharmacokinetics of 14C-voclosporin in NZW rabbits; assay type: in vivo, New Zealand White (NZW) rabbits; settings: for AUC / Cmax: bilateral ocular; for Cmax: Blood
Description: as §1, §2

[3] = system: canine keratoconjunctivitis sicca (KCS); test: Topical voclosporin clinical study in dogs with KCS; assay type: in vivo
From the text: The study covered assessment of tear production (as measured by the Schirmer Tear Test (STT)), the response of clinical observation of the cornea, and participating ophthalmologists' overall assessment of efficacy.
Dogs diagnosed with chronic (>3 months in duration) immune-mediated KCS were selected from the clinic populations of the North Carolina State Veterinary Teaching Hospital. Diagnosis of immune-mediated KCS was made by exclusion of other causes of KCS.
Physical and ophthalmic examinations were performed at 0, 7, 14, and 28 days.

[4] = topical mixed micellar composition

**Q.** Which AUC ([1]; Aqueous Humor, single dose, bilateral ocular, female DB rabbits) does the source give for `C=CC=CCC(C)C(O)C1C(=O)NC(CC)C(=O)N(C)CC(=O)N(C)C(CC(C)C)C(=O)NC(C(C)C)C(=O)N(C)C(CC(C)C)C(=O)NC(C)C(=O)NC(C)C(=O)N(C)C(CC(C)C)C(=O)N(C)C(CC(C)C)C(=O)N(C)C(C(C)C)C(=O)N1C` (stereo not drawn) [^14C-voclosporin] here?
**A.** 56 hr * ng eq./g

**Q.** What about the Cmax ([1]; Blood, single dose, bilateral ocular, female DB rabbits) of the same molecule?
**A.** BQL (Below Quantifiable Limit (<0.1 ng/mL))

**Q.** What about the AUC ([1]; Choroid/Retina, single dose, bilateral ocular, female DB rabbits) of the same molecule?
**A.** 92 hr * ng eq./g

**Q.** What about the AUC ([1]; Cornea, single dose, bilateral ocular, female DB rabbits) of the same molecule?
**A.** 27844 hr * ng eq./g

**Q.** And the AUC ([1]; Iris/Ciliary Body, single dose, bilateral ocular, female DB rabbits)?
**A.** 541 hr * ng eq./g

**Q.** And the AUC ([1]; Lacrimal Gland, single dose, bilateral ocular, female DB rabbits)?
**A.** 335 hr * ng eq./g

**Q.** And the AUC ([1]; Lens, single dose, bilateral ocular, female DB rabbits)?
**A.** 26 hr * ng eq./g

**Q.** What about the AUC ([1]; Lower Bulbar Conjunctiva, single dose, bilateral ocular, female DB rabbits) of the same molecule?
**A.** 13107 hr * ng eq./g

**Q.** What about the AUC ([1]; Lower Eyelid, single dose, bilateral ocular, female DB rabbits) of the same molecule?
**A.** 512473 hr * ng eq./g

**Q.** What about the AUC ([1]; Nictitating Membrane, single dose, bilateral ocular, female DB rabbits) of the same molecule?
**A.** 13091 hr * ng eq./g

**Q.** What about the AUC ([1]; Optic Nerve, single dose, bilateral ocular, female DB rabbits) of the same molecule?
**A.** 1127 hr * ng eq./g

**Q.** And the AUC ([1]; Sclera, single dose, bilateral ocular, female DB rabbits)?
**A.** 3502 hr * ng eq./g

**Q.** What about the AUC ([1]; Submandibular Lymph Node, single dose, bilateral ocular, female DB rabbits) of the same molecule?
**A.** 635 hr * ng eq./g

**Q.** And the AUC ([1]; Tear, single dose, bilateral ocular, female DB rabbits)?
**A.** 262299 hr * ng eq./g

**Q.** And the AUC ([1]; Upper Bulbar Conjunctiva, single dose, bilateral ocular, female DB rabbits)?
**A.** 14296 hr * ng eq./g

**Q.** And the AUC ([1]; Upper Eyelid, single dose, bilateral ocular, female DB rabbits)?
**A.** 68063 hr * ng eq./g

**Q.** What about the AUC ([1]; Vitreous Humor, single dose, bilateral ocular, female DB rabbits) of the same molecule?
**A.** 16 hr * ng eq./g

**Q.** And the “ocular tissue concentrations (e.g., Cmax) versus NZW rabbits (melanin binding)” value ([1]; single dose to DB rabbits)?
**A.** not significantly different from NZW rabbits

**Q.** And the “mortality, morbidity, clinical irritation” value ([2]; 35 μL of 0.2% 14C-voclosporin mixed micellar formulation, single or daily for 7 days, NZW and DB rabbits)?
**A.** No mortality, morbidity or evidence of clinical irritation

**Q.** What about the AUC ([2]; Aqueous Humor, repeat dose (RD, QD for 7 days), female NZW rabbits) of the same molecule?
**A.** 96 hr * ng eq./g

**Q.** And the AUC ([2]; Aqueous Humor, single dose (SD), female NZW rabbits)?
**A.** 45 hr * ng eq./g

**Q.** And the Cmax ([2]; repeat dose (RD, QD for 7 days), female NZW rabbits)?
**A.** BQL (Below Quantifiable Limit (<0.1 ng/mL))

**Q.** And the Cmax ([2]; single dose (SD), female NZW rabbits)?
**A.** BQL (Below Quantifiable Limit (<0.1 ng/mL))

**Q.** What about the AUC ([2]; Choroid/Retina, repeat dose (RD, QD for 7 days), female NZW rabbits) of the same molecule?
**A.** 897 hr * ng eq./g

**Q.** What about the AUC ([2]; Choroid/Retina, single dose (SD), female NZW rabbits) of the same molecule?
**A.** 472 hr * ng eq./g

**Q.** What about the AUC ([2]; Cornea, repeat dose (RD, QD for 7 days), female NZW rabbits) of the same molecule?
**A.** 54624 hr * ng eq./g

**Q.** What about the AUC ([2]; Cornea, single dose (SD), female NZW rabbits) of the same molecule?
**A.** 23166 hr * ng eq./g

**Q.** And the AUC ([2]; Iris/Ciliary Body, repeat dose (RD, QD for 7 days), female NZW rabbits)?
**A.** 1952 hr * ng eq./g

**Q.** What about the AUC ([2]; Iris/Ciliary Body, single dose (SD), female NZW rabbits) of the same molecule?
**A.** 382 hr * ng eq./g

**Q.** What about the AUC ([2]; Lacrimal Gland, repeat dose (RD, QD for 7 days), female NZW rabbits) of the same molecule?
**A.** 1109 hr * ng eq./g

**Q.** What about the AUC ([2]; Lacrimal Gland, single dose (SD), female NZW rabbits) of the same molecule?
**A.** 416 hr * ng eq./g

**Q.** And the AUC ([2]; Lens, repeat dose (RD, QD for 7 days), female NZW rabbits)?
**A.** 356 hr * ng eq./g

**Q.** What about the AUC ([2]; Lens, single dose (SD), female NZW rabbits) of the same molecule?
**A.** 47 hr * ng eq./g

**Q.** What about the AUC ([2]; Lower Bulbar Conjunctiva, repeat dose (RD, QD for 7 days), female NZW rabbits) of the same molecule?
**A.** 16585 hr * ng eq./g

**Q.** And the AUC ([2]; Lower Bulbar Conjunctiva, single dose (SD), female NZW rabbits)?
**A.** 12029 hr * ng eq./g

**Q.** What about the AUC ([2]; Lower Eyelid, repeat dose (RD, QD for 7 days), female NZW rabbits) of the same molecule?
**A.** 358791 hr * ng eq./g

**Q.** What about the AUC ([2]; Lower Eyelid, single dose (SD), female NZW rabbits) of the same molecule?
**A.** 207630 hr * ng eq./g

**Q.** What about the AUC ([2]; Nictitating Membrane, repeat dose (RD, QD for 7 days), female NZW rabbits) of the same molecule?
**A.** 15964 hr * ng eq./g

**Q.** What about the AUC ([2]; Nictitating Membrane, single dose (SD), female NZW rabbits) of the same molecule?
**A.** 12135 hr * ng eq./g

**Q.** And the AUC ([2]; Optic Nerve, repeat dose (RD, QD for 7 days), female NZW rabbits)?
**A.** 1805 hr * ng eq./g

**Q.** And the AUC ([2]; Optic Nerve, single dose (SD), female NZW rabbits)?
**A.** 569 hr * ng eq./g

**Q.** And the AUC ([2]; Sclera, repeat dose (RD, QD for 7 days), female NZW rabbits)?
**A.** 3825 hr * ng eq./g

**Q.** And the AUC ([2]; Sclera, single dose (SD), female NZW rabbits)?
**A.** 2646 hr * ng eq./g

**Q.** And the AUC ([2]; Submandibular Lymph Node, repeat dose (RD, QD for 7 days), female NZW rabbits)?
**A.** 1190 hr * ng eq./g

**Q.** What about the AUC ([2]; Submandibular Lymph Node, single dose (SD), female NZW rabbits) of the same molecule?
**A.** 893 hr * ng eq./g

**Q.** What about the AUC ([2]; Tear, repeat dose (RD, QD for 7 days), female NZW rabbits) of the same molecule?
**A.** 230878 hr * ng eq./g

**Q.** What about the AUC ([2]; Tear, single dose (SD), female NZW rabbits) of the same molecule?
**A.** 168259 hr * ng eq./g

**Q.** And the AUC ([2]; Upper Bulbar Conjunctiva, repeat dose (RD, QD for 7 days), female NZW rabbits)?
**A.** 19944 hr * ng eq./g

**Q.** What about the AUC ([2]; Upper Bulbar Conjunctiva, single dose (SD), female NZW rabbits) of the same molecule?
**A.** 14782 hr * ng eq./g

**Q.** What about the AUC ([2]; Upper Eyelid, repeat dose (RD, QD for 7 days), female NZW rabbits) of the same molecule?
**A.** 98656 hr * ng eq./g

**Q.** What about the AUC ([2]; Upper Eyelid, single dose (SD), female NZW rabbits) of the same molecule?
**A.** 114651 hr * ng eq./g

**Q.** And the AUC ([2]; Vitreous Humor, repeat dose (RD, QD for 7 days), female NZW rabbits)?
**A.** 23 hr * ng eq./g

**Q.** What about the AUC ([2]; Vitreous Humor, single dose (SD), female NZW rabbits) of the same molecule?
**A.** 27 hr * ng eq./g

**Q.** And the “concentrations in remaining ocular tissues” value ([2]; after a single dose)?
**A.** 20-223 ng eq/g tissue

**Q.** And the “lowest concentrations of radioactivity in ocular tissues” value ([2]; after a single dose, aqueous and vitreous humor, and the lens)?
**A.** 1-11 ng eq/g tissue

**Q.** What about the “highest concentrations of radioactivity in ocular tissues” value ([2]; after a single dose, eyelids, conjunctiva, cornea, nictitating membrane and tears) of the same molecule?
**A.** > 1 mg eq/g tissue

**Q.** And the Blood levels ([2]; after ocular application)?
**A.** at the lower limit of quantification (LLOQ)

**Q.** What about the “concentrations of radioactivity in all ocular tissues except lens, aqueous humor, vitreous humor” value ([2]; after single and repeat ocular applications) of the same molecule?
**A.** ≥ 10 ng eq/g tissue

**Q.** And the blood radioactivity ([2]; all but one blood sample below LLOQ)?
**A.** < 3.06 ng eq/mL

**Q.** And the “concentrations in target tissues (conjunctiva, cornea, lacrimal gland) at 24 hours” value ([2]; once daily ocular applications for 7 days)?
**A.** remained at therapeutic levels even at the 24-hour mark

**Q.** And the “change in t1/2 on repeat dosing” value ([2]; repeat dosing up to 7 days, lower bulbar conjunctiva, nictitating membrane, upper bulbar conjunctiva)?
**A.** no apparent change

**Q.** And the “levels in all ocular tissues except aqueous/vitreous humor and lens” value ([2]; single dose administration)?
**A.** higher than 10 ng equivalent drug/gram tissue

**Q.** And the “distribution to the contralateral, non-treated eye” value ([2]; unilateral dosing)?
**A.** minimal distribution

**Q.** With `C=C/C=C/C[C@@H](C)[C@@H](O)[C@H]1C(=O)N[C@@H](CC)C(=O)N(C)CC(=O)N(C)[C@@H](CC(C)C)C(=O)N[C@@H](C(C)C)C(=O)N(C)[C@@H](CC(C)C)C(=O)N[C@@H](C)C(=O)N[C@H](C)C(=O)N(C)[C@@H](CC(C)C)C(=O)N(C)[C@@H](CC(C)C)C(=O)N(C)[C@@H](C(C)C)C(=O)N1C` [voclosporin, reference compound] as the molecule, how does the adverse effects ([3]; 30 days treatment period, 0.2 wt % voclosporin topically every 12 hours) read?
**A.** No adverse effects were noted

**Q.** And the “maintenance of STT” value ([3]; dogs with KCS, 30 days)?
**A.** maintained the STT in these dogs for 30 days

**Q.** What about the tissue accumulation ([2]; after multiple dosing) of the same molecule?
**A.** minimal tissue accumulation

**Q.** What about the “tissue levels at 24 hours” value ([2]; single (1 day) topical dose, female NZW rabbits) of the same molecule?
**A.** Therapeutic levels of voclosporin were noticed even at the 24-hour mark

**Q.** And the “level in the choriod/retina” value [2, 4]?
**A.** high levels

**Q.** And the “level in the vitreous humor” value [2, 4]?
**A.** low levels
